Reference: patent publication US11434221B2, “Pyrazine-4-carbamate or -urea derivatives as herbicides” (Syngenta Participations AG, priority 2017, dated 2022)

Tests used:
Format in all cases: in vivo
Set-up in all cases: key: 5=total damage to plant; 0=no damage to plant
Lolium perenne (LOLPE) [1] = assay: Post-emergence herbicidal activity, glasshouse pot test; details: sprayed after 8 days cultivation, evaluated after 13 days
Description: (§1) Seeds of a variety of test species were sown in standard soil in pots: Triticum aestivium (TRZAW), Avena fatua (AVEFA), Alopecurus myosuroides (ALOMY), Echinochloa crus-galli (ECHCG), Lolium perenne (LOLPE), and Setaria faberi (SETFA). After 8 days cultivation (post-emergence) under controlled conditions in a glasshouse (at 24/16° C., day/night; 14 hours light; 65% humidity), the plants were sprayed with an aqueous spray solution derived from the formulation of the technical active ingredient in acetone/water (50:50) solution containing 0.5% Tween 20 (polyoxyethelyene sorbitan monolaurate, CAS RN 9005-64-5). The test plants were then grown in a glasshouse under controlled conditions (at 24/16° C., day/night; 14 hours light; 65% humidity) and watered twice daily. After 13 days, the test was evaluated (5=total damage to plant; 0=no damage to plant).

Setaria faberi (SETFA) [2] = assay: as above; details: sprayed after 8 days cultivation, evaluated after 13 days
Description: as §1

[3] = test system: Alopecurus myosuroides (ALOMY); assay: as above; details: sprayed after 8 days cultivation, evaluated after 13 days
Description: as §1

Avena fatua (AVEFA) [4] = assay: as above; details: sprayed after 8 days cultivation, evaluated after 13 days
Description: as §1

[5] = test system: Triticum aestivium (TRZAW); assay: as above; details: sprayed after 8 days cultivation, evaluated after 13 days
Description: as §1

[6] = test system: Echinochloa crus-galli (ECHCG); assay: as above; details: sprayed after 8 days cultivation, evaluated after 13 days
Description: as §1

Lolium perenne (LOLPE) [7] = assay: Pre-emergence herbicidal activity, glasshouse pot test; details: sprayed one day after sowing, evaluated after 13 days
Description: as §1, with “After” for “After 8 days”, “for one day (pre-emergence)” for “(post-emergence)”

Setaria faberi (SETFA) [8] = assay: as above; details: sprayed one day after sowing, evaluated after 13 days
Description: as §1, with “After” for “After 8 days”, “for one day (pre-emergence)” for “(post-emergence)”

[9] = test system: Alopecurus myosuroides (ALOMY); assay: as above; details: sprayed one day after sowing, evaluated after 13 days
Description: as §1, with “After” for “After 8 days”, “for one day (pre-emergence)” for “(post-emergence)”

Avena fatua (AVEFA) [10] = assay: as above; details: sprayed one day after sowing, evaluated after 13 days
Description: as §1, with “After” for “After 8 days”, “for one day (pre-emergence)” for “(post-emergence)”

[11] = test system: Triticum aestivium (TRZAW); assay: as above; details: sprayed one day after sowing, evaluated after 13 days
Description: as §1, with “After” for “After 8 days”, “for one day (pre-emergence)” for “(post-emergence)”

[12] = test system: Echinochloa crus-galli (ECHCG); assay: as above; details: sprayed one day after sowing, evaluated after 13 days
Description: as §1, with “After” for “After 8 days”, “for one day (pre-emergence)” for “(post-emergence)”

| SMILES | Control of weed species after post-emergence application, LOLPE (damage score 0-5) (Lolium perenne (LOLPE) [1]; Rate 1000 g/ha) | Control of weed species after post-emergence application, SETFA (damage score 0-5) (Setaria faberi (SETFA) [2]; Rate 1000 g/ha) | Control of weed species after post-emergence application, ALOMY (damage score 0-5) ([3]; Rate 1000 g/ha) | Control of weed species after post-emergence application, AVEFA (damage score 0-5) (Avena fatua (AVEFA) [4]; Rate 1000 g/ha) | Control of weed species after post-emergence application, TRAZW (damage score 0-5) ([5]; Rate 1000 g/ha) | Control of weed species after post-emergence application, ECHCG (damage score 0-5) ([6]; Rate 1000 g/ha) | Control of weed species after pre-emergence application, LOLPE (damage score 0-5) (Lolium perenne (LOLPE) [7]; Rate 1000 g/ha) | Control of weed species after pre-emergence application, SETFA (damage score 0-5) (Setaria faberi (SETFA) [8]; Rate 1000 g/ha) | Control of weed species after pre-emergence application, ALOMY (damage score 0-5) ([9]; Rate 1000 g/ha) | Control of weed species after pre-emergence application, AVEFA (damage score 0-5) (Avena fatua (AVEFA) [10]; Rate 1000 g/ha) | Control of weed species after pre-emergence application, TRAZW (damage score 0-5) ([11]; Rate 1000 g/ha) | Control of weed species after pre-emergence application, ECHCG (damage score 0-5) ([12]; Rate 1000 g/ha) | further results |
| --- | --- | --- | --- | --- | --- | --- | --- | --- | --- | --- | --- | --- | --- |
| C=Cc1nc(-c2cncc(F)c2)cnc1N(C(=O)OC(C)(C)C)C(=O)OC(C)(C)C [Compound H20] | 3 | 5 | 0 | 2 | 1 | 4 | 1 | 4 | 0 | 2 | 1 | 2 | – |
| CCc1nc(-c2cncc(F)c2)cnc1N(C(=O)OC(C)(C)C)C(=O)OC(C)(C)C [Compound H21] | 4 | 5 | 1 | 4 | 1 | 4 | 5 | 5 | 0 | 2 | 0 | 1 | – |
| CC(C)(C)OC(=O)Nc1ncc(-c2cncc(F)c2)nc1CO [Compound H22] | 1 | 2 | 0 | 1 | 0 | 1 | 0 | 0 | 0 | 0 | 0 | 0 | – |
| Cc1nc(-c2cncnc2)cnc1NC(=O)OC(C)(C)C [Compound H23] | 2 | 5 | 1 | 3 | 1 | 4 | 0 | 4 | 0 | 1 | 0 | 2 | – |
| CSc1nc(-c2cncc(F)c2)cnc1NC(=O)OC(C)(C)C [Compound H24] | 2 | 5 | 0 | 3 | 0 | 4 | 1 | 5 | 0 | 2 | 0 | 2 | – |
| CSc1cncc(-c2cnc(NC(=O)OC(C)(C)C)c(SC)n2)c1 [Compound H25] | – | – | – | – | – | – | – | – | – | – | – | – | Control of weed species after post-emergence application, LOLPE (damage score 0-5) (Lolium perenne (LOLPE) [1]; Rate 250 g/ha): 1; Control of weed species after post-emergence application, SETFA (damage score 0-5) (Setaria faberi (SETFA) [2]; Rate 250 g/ha): 1; Control of weed species after post-emergence application, ALOMY (damage score 0-5) ([3]; Rate 250 g/ha): 0; Control of weed species after post-emergence application, AVEFA (damage score 0-5) (Avena fatua (AVEFA) [4]; Rate 250 g/ha): 1; Control of weed species after post-emergence application, TRAZW (damage score 0-5) ([5]; Rate 250 g/ha): 0; Control of weed species after post-emergence application, ECHCG (damage score 0-5) ([6]; Rate 250 g/ha): 1; Control of weed species after pre-emergence application, LOLPE (damage score 0-5) (Lolium perenne (LOLPE) [7]; Rate 250 g/ha): 0; Control of weed species after pre-emergence application, SETFA (damage score 0-5) (Setaria faberi (SETFA) [8]; Rate 250 g/ha): 0; Control of weed species after pre-emergence application, ALOMY (damage score 0-5) ([9]; Rate 250 g/ha): 0; Control of weed species after pre-emergence application, AVEFA (damage score 0-5) (Avena fatua (AVEFA) [10]; Rate 250 g/ha): 0; Control of weed species after pre-emergence application, TRAZW (damage score 0-5) ([11]; Rate 250 g/ha): 0; Control of weed species after pre-emergence application, ECHCG (damage score 0-5) ([12]; Rate 250 g/ha): 0 |
| COC(=O)c1nc(-c2cncc(F)c2)cnc1N(C(=O)OC(C)(C)C)C(=O)OC(C)(C)C [Compound H26] | 0 | 5 | 0 | 1 | 1 | 3 | 0 | 5 | 0 | 0 | 0 | 0 | – |
| CC(C)(C)OC(=O)Nc1ncc(-c2cncc(F)c2)nc1C(F)F [Compound H28] | 3 | 5 | 0 | 4 | 0 | 5 | 0 | 4 | 3 | 2 | 0 | 2 | – |
| C#Cc1nc(-c2cncc(F)c2)cnc1N(C(=O)OC(C)(C)C)C(=O)OC(C)(C)C [Compound H29] | 1 | 1 | 0 | 0 | 1 | 1 | 0 | 0 | 0 | 0 | 0 | 0 | – |
